What all share (format): in vivo, Kunming mice
The test system of assay [1] is MPTP model mice. The experiment in a line: Pole-climbing test in MPTP model mice. To be noted: intragastric for 2 weeks after modeling, 30 mg/kg (rasagiline 1 mg/kg), vs. MPTP group, n=6, FIG. 2. The protocol:
Administration method: the mice were randomly divided into 6 groups with 6 mice in each group, i.e., the control group, the MPTP model group (intraperitoneal injection of MPTP, 30 mg/kg, established after five days of administration and two days of rest), the MPTP+Fructus lycii extract (water extraction) group (administration after modeling, 30 mg/kg, intragastric administration for two weeks), the MPTP+Fructus lycii polysaccharide group (administration after modeling, 30 mg/kg, intragastric administration for two weeks), the MPTP+Fructus lycii glucopeptide group (administration after modeling, 30 mg/kg, intragastric administration for 2 weeks), the MPTP+rasagiline group (administration after modeling, 1 mg/kg, intragastric administration for 2 weeks). Instruction: the pole-climbing test is a behavioral test to record the time difference of mice on the pole so as to detect the limb movement coordination of mice. The whole experiment was completed in a quiet and dark environment. The pole was composed of an iron frame with a diameter of 1 cm and a height of 60 cm and a small ball with a diameter of 1.5 cm fixed on its top. […] The time required for the mice to climb to the bottom from the beginning was recorded. If the time exceeded 1 minute, it was recorded as 1 minute. Each mouse was tested for 5 rounds each time, and the results were expressed as the average values.

Assay [2] concerns MPTP model mice. The experiment in a line: Rotarod test in MPTP model mice. To be noted: intragastric for 2 weeks after modeling, 30 mg/kg (rasagiline 1 mg/kg), vs. MPTP group, n=6, FIG. 3. (Falling from the rotarod earlier than controls is read as motor impairment.)
Method: Instruction: rotarod test was used to detect the motor coordination ability of mice by recording the time of the mice on the cylindrical rotarod using the rotarod fatigue apparatus. The test was conducted in a quiet and dark environment. The rotarod fatigue apparatus can accommodate five mice at a time for the test. Each mouse has a separate track, with a connected computer software for recording the time when the mouse falls. When the mouse rotates passively with the rotarod for more than two consecutive circles, the timing should also be stopped. Before restraint stress, the mice were trained for a week in advance to adapt, and each mouse was trained for three rounds every time. After restraint stress, the mice were detected once a week, and the parameter was set at a speed ramp from 5 r/min to 30 r/min at a constant rate within 5 min. The time of the mice on the rotarod within 5 min was recorded, and the time exceeding 5 min was recorded as 5 min. Each mouse was detected for 3 rounds each time, and the average value was calculated. The test interval of each group of mice was at least 30 min. Before each change of the mice, the apparatus was cleaned with 75% ethanol to remove the odor before the next group of test.
Assay [3] relates to MPTP model mice. The experiment in a line: CatWalk gait analysis in MPTP model mice. The conditions noted are these: intragastric for 2 weeks after modeling, 30 mg/kg (rasagiline 1 mg/kg), vs. MPTP group, n=6, FIG. 4-7.
From the text: Instruction: CatWalk gait analysis is a system for analyzing the gait of rodents, including the balance maintenance ability, the use of limbs and the stability analysis of movement state and gait. The main accessories include built-in red LED light panel and green fluorescent glass panel, high-frequency camera under the glass panel, image transmission system and computer software and hardware. Before inspection, the camera height will be adjusted to 60 cm, the effective length and width of the runway will be delimited in the software, and the gain of the camera will be set to 28.12 dB. The process of each mouse passing through the glass plate smoothly was recorded at room temperature, and the longest time was set to 10 s, that is, the data was valid if the mouse passed through the set distance within 10 s. The principle of recording is that the paw prints of mice are illuminated by the fluorescent reflection of the fluorescent lamp in the glass panel, captured by the camera below and transmitted to the computer, and the recorded video data are statistically analyzed by the software of the system. According to the location of paw print, the pressure of paw on the glass panel, the distance between different paw prints, the velocity of mouse gait and the regularity of gait, the gait of mice was qualitatively and quantitatively analyzed. […]

`C#CCN[C@@H]1CCc2ccccc21` [rasagiline, Rasagiline]: the “pole-climbing time (time to climb from top to bottom of the pole)” value with MPTP model mice [1] is on record as “significantly shorten the pole-climbing time”. The “on-rod time (anti-fatigue time on the rotarod)” value with MPTP model mice [2] was “significantly restore the on-rod time”. Also, the “gait behavior (average speed, maximum variation, cadence, number of steps)” value in the assay on MPTP model mice [3] is “significantly restore the gait behavior disorder”.

(Values after US20250000940A1, “USE OF FRUCTUS LYCII GLUCOPEPTIDE” (NINGXIA QITAI TECHNOLOGY CO., LTD., priority 2021, published 2025).)
